Laboratory results reported in patent publication US10479810B2, “Crystal form of tenofovir alafenamide salt, preparation method and use thereof” (SHANGHAI BEGREAT PHARMATECH, priority 2016, dated 2019).
Where two headings read alike, the source gives them in different places.

Details: for TAF total degradation impurities %: mixtures with emtricitabine at weight ratio about 1:15, HPLC
Protocol: In this patent, TAF fumarate crystal form I (prepared according to the method of WO2013025788A1), TAF fumarate crystal form II, TAF fumarate crystal form A and TAF fumarate crystal form B and emtricitabine are compared. The mixture was mixed at a weight ratio of about 1:15, placed at 40° C. and a relative humidity of 75%, and placed open for 21 days. The degradation of TAF was analyzed by HPLC at 0 days and 21 day.

| Molecule | chemical compatibility of TAF with emtricitabine (compared with TAF hemifumarate crystal form I in combination with emtricitabine) | TAF total degradation impurities % (0 day) [%] | TAF total degradation impurities % (21 day, 40° C., relative humidity 75%, placed open) [%] |
| --- | --- | --- | --- |
| CC(C)OC(=O)[C@H](C)N[P@](=O)(CO[C@H](C)Cn1cnc2c(N)ncnc21)Oc1ccccc1.O=C(O)/C=C/C(=O)O [TAF fumarate Form II, 9-[(R)-2-[[(S)-[[(S)-1-(isopropoxycarbonyl)ethyl]amino]phenoxyphosphinyl]methoxy]propyl]adenine fumarate] | significantly improve | – | – |
| Tenofovir alafenamide hemifumarate [TAF fumarate Form I] | – | 0.1 | 0.9 |
